Source: patent US7015228B2, “4-amino-2-(2-pyridyl)pyrimidines as microbicidal active substances” (Ciba Specialty Chemicals Corporation, priority 2001, dated 2006)
Values after ≈ are worked out from the molar mass of the structure shown.

Tests used:
S. aureus ATCC 6538 = assay: Determination of the bactericidal activity (logarithmic reduction in organism count); assay type: cell-based, Staphylococcus aureus; settings: contact for 30 minutes at a substance concentration of 120 μg/mL
Experimental: (§1) Determination of the Bactericidal Activity of Selected Compounds
(§2) Casein-soybean flour-peptone broth for preparation of pre-cultures of test bacteria
(§3) Examples of Test Organisms:
(§4) • Staphylococcus aureus ATCC 6538 • Escherichia coli ATCC 10536 • Salmonella choleraesuis ATCC 10708 Procedure:
(§5) The test substances are dissolved in dimethyl sulfoxide (DMSO) and tested in a concentration of 120 μg/ml.
(§6) Bacteria are incubated overnight in CASO broth and adjusted to an organism count of 1–5×10^5 CFU/ml using 0.85% sodium chloride solution.
(§7) The test substances are pre-pipetted into microtitre plates in amounts of 8 μl per well.
(§8) The adjusted test organism suspensions are added in amounts of 192 μl per well to the test substances and mixed. After defined contact times, the test batches are mixed, an aliquot is withdrawn and diluted in several steps in a dilution series of 1:10 in a suitable inactivation medium.
The test plates are incubated for 24 hours at 37° C.
(§9) After incubation, the growth is determined on the basis of the turbidity of the test batches (optical density) at 620 nm in a microplate reader.
(§10) One microtitre plate is used for each test organism.
(§11) All the substances are tested in duplicate.

E. coli NCTC 8196 = assay: as above; assay type: cell-based, Escherichia coli; settings: contact for 30 minutes at a substance concentration of 120 μg/mL
[1] = test system: S. choleraesuis ATCC 10708; assay: as above; assay type: cell-based, Salmonella choleraesuis; settings: contact for 30 minutes at a substance concentration of 120 μg/mL
Experimental: as §1, §2, §3, §4, §5, §6, §7, §8
The test plates are incubated for 24 hours at 37° C. […]
as §10, §11

[2] = test system: Staphylococcus hominis DMS 20328; assay: Minimum inhibitory concentration (MIC) in microtitre plates; assay type: cell-based; settings: Table 7; 48 hours at 37° C.; MIC = ≦20% growth compared to control
Experimental: (§12) Determination of the Minimum Inhibitory Concentration (MIC Value) in Microtitre Plates
(§13) Casein-soybean flour-peptone broth for preparation of pre-cultures of test bacteria and yeast.
(§14) Mycological slant agar for the pre-culture of moulds
as §3
(§15) The test substances are pre-dissolved in dimethyl sulfoxide (DMSO) and tested in a dilution series of 1:2.
(§16) Bacteria and yeast are cultured overnight in CASO broth, the mould is cultured overnight on mycological slant agar, and washed off using 10 ml of 0.85% sodium chloride solution (+0.1% Triton X-100).
(§17) All the test organisms are adjusted to an organism count of 1–5×10^6 CFU/ml using 0.85% sodium chloride solution.
as §7
(§18) Pre-diluted organism suspensions are diluted 1:100 in CASO broth (bacteria and yeast) or Sabouraud 2% glucose broth (mould) and are added in amounts of 192 μl per well to the test substances.
(§19) The test batches are incubated for 48 hours at 37° C. (bacteria and yeast) or for 5 days at 28° C. (mould).
as §9
(§20) The minimum inhibitory concentration (MIC value) is the concentration of substance at which there is found (compared to the growth of the control) an appreciable inhibition of growth (≦20% growth) of the test organisms.
(§21) One microtitre plate is used for each test organism and substance concentration. All the substances are tested in duplicate.

[3] = test system: Escherichia coli NCTC 8196; assay: as above; assay type: cell-based; settings: for Minimum inhibitory concentration (MIC) E. coli: Table 7, 48 hours at 37° C., MIC = ≦20% growth compared to control; for Minimum inhibitory concentration (MIC) E. coli NCTC 8196: Table 8, * = significant inhibition of growth, but not complete inhibition
Experimental: as §12, §13, §14, §3, §15, §16, §17, §7, §18, §19, §9, §20, §21

[4] = test system: Staphylococcus aureus ATCC 9144; assay: Minimum inhibitory concentration (MIC), further microorganisms; assay type: cell-based; settings: Table 8; * = significant inhibition of growth, but not complete inhibition
Experimental: as §12, §13, §14, §15, §16, §17, §7, §18, §19, §9, §20, §21

[5] = test system: Trichophyton mentagrophytes ATCC 9533; assay: as above; assay type: cell-based; settings: Table 8; * = significant inhibition of growth, but not complete inhibition
Experimental: as §12, §13, §14, §15, §16, §17, §7, §18, §19, §9, §20, §21

[6] = test system: Micrococcus luteus ATCC 9341; assay: as above; assay type: cell-based; settings: Table 8; * = significant inhibition of growth, but not complete inhibition
Experimental: as §12, §13, §14, §15, §16, §17, §7, §18, §19, §9, §20, §21

[7] = test system: Enterococcus hirae ATCC 10541; assay: as above; assay type: cell-based; settings: Table 8; * = significant inhibition of growth, but not complete inhibition
Experimental: as §12, §13, §14, §15, §16, §17, §7, §18, §19, §9, §20, §21

[8] = test system: S. epidermidis ATCC 12228; assay: as above; assay type: cell-based; settings: Table 8; * = significant inhibition of growth, but not complete inhibition
Experimental: as §12, §13, §14, §15, §16, §17, §7, §18, §19, §9, §20, §21

[9] = test system: Epidermophyton floccosum DSM 10709; assay: as above; assay type: cell-based; settings: Table 8; * = significant inhibition of growth, but not complete inhibition
Experimental: as §12, §13, §14, §15, §16, §17, §7, §18, §19, §9, §20, §21

| Minimum inhibitory concentration (MIC) S. hominis [2] [µg/mL] | Minimum inhibitory concentration (MIC) E. coli [3] [µg/mL] | Minimum inhibitory concentration (MIC) E. coli NCTC 8196 [3] | Minimum inhibitory concentration (MIC) Staphylococcus aureus ATCC 9144 [4] | Minimum inhibitory concentration (MIC) Trichophyton mentagrophytes ATCC 9533 [5] | Minimum inhibitory concentration (MIC) Micrococcus luteus ATCC 9341 [6] [µg/mL] | Minimum inhibitory concentration (MIC) Enterococcus hirae ATCC 10541 [7] [µg/mL] | Minimum inhibitory concentration (MIC) S. epidermidis ATCC 12228 [8] [µg/mL] | Minimum inhibitory concentration (MIC) Epidermophyton floccosum DSM 10709 [9] | SMILES | Logarithmic reduction in organism count, S. aureus ATCC 6538 (S. aureus ATCC 6538) | Logarithmic reduction in organism count, E. coli NCTC 8196 (E. coli NCTC 8196) | Logarithmic reduction in organism count, S. choleraesuis ATCC 10708 [1] |
| --- | --- | --- | --- | --- | --- | --- | --- | --- | --- | --- | --- | --- |
|  |  |  |  |  |  |  |  |  | CCc1c(C)nc(-c2ccccn2)nc1NCCCCCCCCCCCCN [Compound of formula 7] | 2 log | ≦1 log | <1 log |
|  |  |  |  |  |  |  |  |  | CCCCCCCCNc1nc(-c2ccccn2)nc(C)c1CC [Compound of formula 9] | <1 log | <1 log | <1 log |
|  |  |  |  |  |  |  |  |  | CCCCCCCCCNc1nc(-c2ccccn2)nc(C)c1CC [Compound of formula 10] | 1–2 log | <1 log | <1 log |
|  |  |  |  |  |  |  |  |  | CCCCCCCCCCNc1nc(-c2ccccn2)nc(C)c1CC [Compound of formula 11] | 1–2 log | ≦1 log | <1 log |
|  |  |  |  |  |  |  |  |  | CCCCCCCCCCCCNc1nc(-c2ccccn2)nc(C)c1CC [Compound of formula 12] | 1–2 log | <1 log | <1 log |
|  |  |  |  |  |  |  |  |  | Cc1cc(NCCCCCCCCCN)nc(-c2ccccn2)n1 [Compound of formula 18] | 1 log | <1 log | <1 log |
|  |  |  |  |  |  |  |  |  | Cc1cc(NCCCCCCCCCCCCN)nc(-c2ccccn2)n1 [Compound of formula 19] | 2–3 log | ≦1 log | <1 log |
|  |  |  |  |  |  |  |  |  | CCCCCCCCNc1cc(C)nc(-c2ccccn2)n1 [Compound of formula 21] | 1–2 log | <1 log | <1 log |
|  |  |  |  |  |  |  |  |  | CCCCCCCCCNc1cc(C)nc(-c2ccccn2)n1 [Compound of formula 22] | 1–2 log | <1 log | <1 log |
|  |  |  |  |  |  |  |  |  | CCCCCCCCCCNc1cc(C)nc(-c2ccccn2)n1 [Compound of formula 23] | 3 log | <1 log | <1 log |
|  |  |  |  |  |  |  |  |  | CCCCCCCCCCCCNc1cc(C)nc(-c2ccccn2)n1 [Compound of formula 24] | 2 log | ≦1 log | <1 log |
|  |  |  |  |  |  |  |  |  | NCCCCCCCCCNc1cc(C(F)(F)F)nc(-c2ccccn2)n1 [Compound of formula 30] | ≦1 log | <1 log | ≦1 log |
|  |  |  |  |  |  |  |  |  | CCCCCCCNc1cc(C(F)(F)F)nc(-c2ccccn2)n1 [Compound of formula 32] | <1 log | <1 log | ≦1 log |
|  |  |  |  |  |  |  |  |  | CCCCCCCCNc1cc(C(C)(C)C)nc(-c2ccccn2)n1 [Compound of formula 57] |  | <1 log | <1 log |
| 3.75 (≈ 11 µM) | >120 | >60 µg/mL | 1.9 µg/mL (≈ 5.58 µM) | *60 μg/mL | <0.5 | 1.0 (≈ 2.94 µM) | 1.9 (≈ 5.58 µM) | 60 µg/mL (≈ 176 µM) | CCCCCCCCNc1cc(C(C)(C)C)nc(-c2ccccn2)n1 [compound 57] |  |  |  |
| 3.75 (≈ 10.6 µM) | >120 | >60 µg/mL | *1.9 μg/mL | >60 µg/mL | <0.5 | 7.5 (≈ 21.2 µM) | 1.9 (≈ 5.36 µM) | >60 µg/mL | CCCCCCCCCNc1cc(C(C)(C)C)nc(-c2ccccn2)n1 [compound 58] |  |  |  |
| 7.5 (≈ 23 µM) | >120 | >30 µg/mL | 15 µg/mL (≈ 45.9 µM) | >60 µg/mL | 3.75 (≈ 11.5 µM) | 7.5 (≈ 23 µM) | 15 (≈ 45.9 µM) | 60* μg/mL | CCCCCCCNc1nc(-c2ccccn2)nc(C)c1C(C)C [compound 68] |  |  |  |
| 3.75 (≈ 10.6 µM) | >120 | >60 µg/mL | 7.5 µg/mL (≈ 21.2 µM) | 15 µg/mL (≈ 42.3 µM) | 1.0 (≈ 2.82 µM) | 3.75 (≈ 10.6 µM) | 7.5 (≈ 21.2 µM) | *7.5 μg/mL | CCCCCCCCCNc1nc(-c2ccccn2)nc(C)c1C(C)C [compound 70] |  |  |  |
| 5 (≈ 13.6 µM) | >80 | >60 µg/mL | 7.5 µg/mL (≈ 20.3 µM) | *30 μg/mL | 1.9 (≈ 5.16 µM) | 7.5 (≈ 20.3 µM) | 7.5 (≈ 20.3 µM) | 60 µg/mL (≈ 163 µM) | CCCCCCCCCCNc1nc(-c2ccccn2)nc(C)c1C(C)C [compound 71] |  |  |  |
| 7.5 (≈ 20.2 µM) | >120 | >60 µg/mL | *15 μg/mL | >60 µg/mL | 3.75 (≈ 10.1 µM) | 30 (≈ 81 µM) | 15 (≈ 40.5 µM) | >60 µg/mL | CCCCCCCCCCNc1cc(CCOC)nc(-c2ccccn2)n1 [compound 83] |  |  |  |

| SMILES | Minimum inhibitory concentration (MIC) S. hominis [2] [µg/mL] | Minimum inhibitory concentration (MIC) E. coli [3] [µg/mL] | Minimum inhibitory concentration (MIC) E. coli NCTC 8196 [3] | Minimum inhibitory concentration (MIC) Staphylococcus aureus ATCC 9144 [4] | Minimum inhibitory concentration (MIC) Trichophyton mentagrophytes ATCC 9533 [5] | Minimum inhibitory concentration (MIC) Micrococcus luteus ATCC 9341 [6] [µg/mL] | Minimum inhibitory concentration (MIC) Enterococcus hirae ATCC 10541 [7] [µg/mL] | Minimum inhibitory concentration (MIC) S. epidermidis ATCC 12228 [8] [µg/mL] | Minimum inhibitory concentration (MIC) Epidermophyton floccosum DSM 10709 [9] | Logarithmic reduction in organism count, S. aureus ATCC 6538 (S. aureus ATCC 6538) | Logarithmic reduction in organism count, E. coli NCTC 8196 (E. coli NCTC 8196) | Logarithmic reduction in organism count, S. choleraesuis ATCC 10708 [1] |
| --- | --- | --- | --- | --- | --- | --- | --- | --- | --- | --- | --- | --- |
| CC(C)(C)c1cc(NCCc2ccccc2)nc(-c2ccccn2)n1 [compound 63] | 3.75 (≈ 11.3 µM) | >120 | *60 μg/mL | 15 µg/mL (≈ 45.1 µM) | *60 μg/mL | 7.5 (≈ 22.6 µM) | 30 (≈ 90.2 µM) | 30 (≈ 90.2 µM) | *15 μg/mL |  |  |  |
